Data on four compounds can be found in patent publication US20110046056A1, “APOA-1 PEPTIDE MIMETICS” (priority 2007, published 2011).

*1 amine or outer side, *2 acyl side, *3 side chain or, on linkers, in order; H or OH if unused. Where a SMILES comes first, the peptide text is derived from it. [ ]: non-standard residue; d: D form. Leu(5,5,5,5',5',5'-F6) = N[C@@H](CC(C(F)(F)F)C(F)(F)F)C(=O)O; Ala(5-hexenyl) = C=CCCCCC[C@H](N)C(=O)O; Gly(octyl) = CCCCCCCC[C@H](N)C(=O)O; X6 = CCCCCCC[C@H](N[*:1])C(=O)[*:2]

For the assay, the target named is T1, ABCA1 cholesterol transporter protein (Mus musculus, UniProt P41233).
T1 construct: endogenous in cells
T1 sequence (P41233 whole entry): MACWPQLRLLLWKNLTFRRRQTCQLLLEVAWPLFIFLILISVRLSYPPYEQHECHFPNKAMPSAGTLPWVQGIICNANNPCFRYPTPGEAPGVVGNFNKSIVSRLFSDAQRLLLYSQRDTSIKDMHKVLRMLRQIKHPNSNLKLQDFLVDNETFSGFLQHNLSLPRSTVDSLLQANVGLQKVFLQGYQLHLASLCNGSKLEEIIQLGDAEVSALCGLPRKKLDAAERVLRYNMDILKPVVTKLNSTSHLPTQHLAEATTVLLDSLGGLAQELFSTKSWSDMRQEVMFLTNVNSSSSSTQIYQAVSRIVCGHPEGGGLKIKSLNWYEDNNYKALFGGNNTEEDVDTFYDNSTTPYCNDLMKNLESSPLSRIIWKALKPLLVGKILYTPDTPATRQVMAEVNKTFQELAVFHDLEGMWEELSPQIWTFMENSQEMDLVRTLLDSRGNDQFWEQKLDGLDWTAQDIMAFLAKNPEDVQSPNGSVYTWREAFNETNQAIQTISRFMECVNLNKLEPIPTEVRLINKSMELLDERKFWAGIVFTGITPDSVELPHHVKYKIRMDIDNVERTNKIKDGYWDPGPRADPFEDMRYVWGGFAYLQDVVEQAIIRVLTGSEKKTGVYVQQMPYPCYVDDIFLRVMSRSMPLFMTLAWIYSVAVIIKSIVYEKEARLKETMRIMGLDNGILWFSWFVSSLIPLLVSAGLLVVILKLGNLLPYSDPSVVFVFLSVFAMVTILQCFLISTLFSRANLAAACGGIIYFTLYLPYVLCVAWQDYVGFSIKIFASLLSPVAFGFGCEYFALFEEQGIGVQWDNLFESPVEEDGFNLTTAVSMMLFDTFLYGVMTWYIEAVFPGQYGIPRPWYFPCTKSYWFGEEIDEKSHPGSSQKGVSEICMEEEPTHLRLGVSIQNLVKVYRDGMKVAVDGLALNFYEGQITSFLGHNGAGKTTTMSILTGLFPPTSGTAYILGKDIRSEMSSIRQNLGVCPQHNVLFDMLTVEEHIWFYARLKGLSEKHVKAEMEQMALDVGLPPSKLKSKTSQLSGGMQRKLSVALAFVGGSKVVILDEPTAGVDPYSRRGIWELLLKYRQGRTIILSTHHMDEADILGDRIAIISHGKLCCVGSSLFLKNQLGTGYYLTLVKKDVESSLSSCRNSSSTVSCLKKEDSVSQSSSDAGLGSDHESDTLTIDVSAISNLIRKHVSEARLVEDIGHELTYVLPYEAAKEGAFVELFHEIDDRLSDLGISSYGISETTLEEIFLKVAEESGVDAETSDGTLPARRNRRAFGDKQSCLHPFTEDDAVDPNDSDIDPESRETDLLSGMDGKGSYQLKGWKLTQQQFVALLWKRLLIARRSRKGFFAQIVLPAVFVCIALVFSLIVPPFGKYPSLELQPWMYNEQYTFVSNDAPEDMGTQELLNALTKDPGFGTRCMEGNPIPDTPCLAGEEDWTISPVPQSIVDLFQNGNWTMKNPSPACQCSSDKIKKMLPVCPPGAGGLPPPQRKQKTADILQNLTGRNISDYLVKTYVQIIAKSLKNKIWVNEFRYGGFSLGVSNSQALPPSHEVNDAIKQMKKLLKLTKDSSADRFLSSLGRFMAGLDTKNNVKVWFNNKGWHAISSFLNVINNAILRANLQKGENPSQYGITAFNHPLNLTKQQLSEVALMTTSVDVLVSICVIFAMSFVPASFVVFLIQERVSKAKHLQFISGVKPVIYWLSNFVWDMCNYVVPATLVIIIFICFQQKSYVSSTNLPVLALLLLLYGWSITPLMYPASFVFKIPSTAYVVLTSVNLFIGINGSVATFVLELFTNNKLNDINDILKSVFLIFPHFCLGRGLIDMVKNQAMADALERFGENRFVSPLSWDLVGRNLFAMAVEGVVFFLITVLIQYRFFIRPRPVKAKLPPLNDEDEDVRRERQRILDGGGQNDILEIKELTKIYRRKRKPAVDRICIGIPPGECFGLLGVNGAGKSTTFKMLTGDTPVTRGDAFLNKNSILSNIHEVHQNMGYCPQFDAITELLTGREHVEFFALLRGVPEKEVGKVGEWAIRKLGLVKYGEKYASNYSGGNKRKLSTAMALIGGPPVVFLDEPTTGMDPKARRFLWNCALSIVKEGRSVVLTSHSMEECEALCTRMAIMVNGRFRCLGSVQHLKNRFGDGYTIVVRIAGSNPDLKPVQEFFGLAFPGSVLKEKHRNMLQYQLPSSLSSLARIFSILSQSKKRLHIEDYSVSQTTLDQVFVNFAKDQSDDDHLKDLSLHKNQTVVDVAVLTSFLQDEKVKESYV
In words: ABCA1-dependent cholesterol efflux from RAW mouse macrophage cells (in vitro RCT assay). In kind it is cell-based. Conditions: read-out: EC50 in the cholesterol efflux assay (RCT in vitro assay). The source says:
Peptides of the present invention were designed based on amphipathic properties and their abilities to solubilize phospholipids and promote cholesterol efflux. The most direct functional measurement of efficacy for the ApoA-1 peptide mimetic is its capacity to improve the efflux of cholesterol from the cell. The RAW and J774 cell lines are reliable mouse macrophage cell lines frequently used in the art for this purpose. […] The RAW cell line is preferred and recited in the description below.
In the present assay, the RAW cells are plated at 1.5×10^5 cells/200 μl/well/48-well plate in DMEM complete medium (with 10% FBS from INVITROGEN and 1% penicillin-streptomycin-glutamine from GIBCO) and ^3H-cholesterol at 5 μCi/ml. After 24 hours incubation in a moist 37° C. atmosphere with 5% CO2, the spent medium is removed, the cells are washed once with serum-free DMEM (0.1% fatty acid free bovine serum albumin replaces the FBS), and fresh serum-free medium (200 μl) is added to each well. After overnight incubation in the serum-free medium to allow the cellular cholesterol pools to equilibrate, the spent medium is removed, and fresh serum-free medium is added with/without CPT-cAMP (150 μM final). Eight-point serial titrations of the peptide/s being tested are added at this time (duplicate titrations in plain medium without cAMP and duplicate titrations in medium containing cAMP).
After 24 hours incubation in the various conditions, the medium is harvested from each well and 50 μl aliquots are counted. The cells are then lysed by adding 500 μl of HEPES/Triton lysis buffer to each well. The lysis is facilitated by freezing and thawing once. After thawing, the lysates are mixed well and 50 μl aliquots are counted.
The percent efflux of each peptide in each medium condition (±cAMP) is calculated by dividing the total counts in the medium by the sum of the total counts in the medium and lysate. The percent efflux seen with plain medium is subtracted from the percent efflux seen with the cAMP-stimulated efflux to yield the reported ABCA1-stimulated values. EC50 values are determined using PRISM software (Table 2).
For `CCCCCCC[C@H](NC(=O)[C@H](CCC(=O)O)NC(=O)[C@H](CC(N)=O)NC(=O)[C@H](CC(C)C)NC(=O)[C@H](CCCCN)NC(=O)[C@H](CCC(=O)O)NC(=O)[C@H](CCCN=C(N)N)NC(=O)[C@H](Cc1ccccc1)NC(=O)[C@H](CCC(=O)O)NC(=O)[C@H](CC(=O)O)NC(=O)[C@H](CC(C)C)NC(=O)[C@@H](NC(=O)[C@@H]1CCCN1C(C)=O)C(C)C)C(=O)N[C@@H](CC(C)C)C(=O)N[C@@H](CCC(=O)O)C(=O)N[C@@H](C)C(=O)N[C@@H](CC(C)C)C(=O)N[C@@H](CCCCN)C(=O)N[C@@H](CCC(N)=O)C(=O)N[C@@H](CCCCN)C(=O)N[C@@H](CC(C)C)C(=O)N[C@@H](CCCCN)C(N)=O` [SEQ ID NO 34, PVLDEFREKLNES7H3LEALKQKLK] (Ac-PVLDEFREKLNE[X6]LEALKQKLK-NH2), the EC50 was 0.6 µM. The same measure for `CCCCCCCC[C@H](NC(=O)[C@H](CCC(=O)O)NC(=O)[C@H](CC(N)=O)NC(=O)[C@H](CC(C)C)NC(=O)[C@H](CCCCN)NC(=O)[C@H](CCC(=O)O)NC(=O)[C@H](CCCN=C(N)N)NC(=O)[C@H](Cc1ccccc1)NC(=O)[C@H](CCC(=O)O)NC(=O)[C@H](CC(=O)O)NC(=O)[C@H](CC(C)C)NC(=O)[C@@H](NC(=O)[C@@H]1CCCN1C(C)=O)C(C)C)C(=O)N[C@@H](CC(C)C)C(=O)N[C@@H](CCC(=O)O)C(=O)N[C@@H](C)C(=O)N[C@@H](CC(C)C)C(=O)N[C@@H](CCCCN)C(=O)N[C@@H](CCC(N)=O)C(=O)N[C@@H](CCCCN)C(=O)N[C@@H](CC(C)C)C(=O)N[C@@H](CCCCN)C(N)=O` [SEQ ID NO 35, PVLDEFREKLNES8H3LEALKQKLK] (Ac-PVLDEFREKLNE[Gly(octyl)]LEALKQKLK-NH2): 0.3 µM; for `CC(=O)N1CCC[C@H]1C(=O)N[C@H](C(=O)N[C@@H](CC(C)C)C(=O)N[C@@H](CC(=O)O)C(=O)N[C@@H](CCC(=O)O)C(=O)N[C@@H](Cc1ccccc1)C(=O)N[C@@H](CCCNC(=N)N)C(=O)N[C@@H](CCC(=O)O)C(=O)N[C@@H](CCCCN)C(=O)N[C@@H](CC(C)C)C(=O)N[C@@H](CC(N)=O)C(=O)N[C@@H](CCC(=O)O)C(=O)N[C@@H](CC(C(F)(F)F)C(F)(F)F)C(=O)N[C@@H](CC(C)C)C(=O)N[C@@H](CCC(=O)O)C(=O)N[C@@H](C)C(=O)N[C@@H](CC(C)C)C(=O)N[C@@H](CCCCN)C(=O)N[C@@H](CCC(N)=O)C(=O)N[C@@H](CCCCN)C(=O)N[C@@H](CC(C)C)C(=O)N[C@@H](CCCCN)C(N)=O)C(C)C` [SEQ ID NO 41, PVLDEFREKLNE-HFLEU-LEALKQKLK] (Ac-PVLDEFREKLNE[Leu(5,5,5,5',5',5'-F6)]LEALKQKLK-NH2; C-terminus assumed): 1.1 µM; for `C=CCCCCC[C@H](NC(=O)[C@H](CCC(=O)O)NC(=O)[C@H](CC(N)=O)NC(=O)[C@H](CC(C)C)NC(=O)[C@H](CCCCN)NC(=O)[C@H](CCC(=O)O)NC(=O)[C@H](CCCN=C(N)N)NC(=O)[C@H](Cc1ccccc1)NC(=O)[C@H](CCC(=O)O)NC(=O)[C@H](CC(=O)O)NC(=O)[C@H](CC(C)C)NC(=O)[C@H](CCCCCC=C)NC(=O)[C@@H]1CCCN1C(C)=O)C(=O)N[C@@H](CC(C)C)C(=O)N[C@@H](CCC(=O)O)C(=O)N[C@@H](C)C(=O)N[C@@H](CC(C)C)C(=O)N[C@@H](CCCCN)C(=O)N[C@@H](CCC(N)=O)C(=O)N[C@@H](CCCCN)C(=O)N[C@@H](CC(C)C)C(=O)N[C@@H](CCCCN)C(N)=O` [SEQ ID NO 42, PS7HLDEFREKLNES7HLEALKQKLK] (Ac-P[Ala(5-hexenyl)]LDEFREKLNE[Ala(5-hexenyl)]LEALKQKLK-NH2): 0.3 µM.

The EC50 is the concentration that produces a half-maximal response.
